Source: PubChem BioAssay AID330 (DTP/NCI, 2004)
“And” between values parts separate entries of the source, which are not always exact repeats. Identical values can stand only once. Inconclusive results and toxic doses are left out. How the source made its calls: active means survival T/C of 150% or more; inactive means T/C below 125% in these data.

Tested on: P388 leukemia ip, CD2F1 mice, survival T/C
Test: NCI In Vivo Anticancer Drug Screen. Data for tumor model P388 Leukemia (intraperitoneal) in CD2F1 (CDF1) mice
Conditions: endpoint: median survival time, higher = longer survival
Method in brief: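 Mice carrying the transplanted tumor received test compound or vehicle. Survival was recorded in each group, and the value is the treated-group measurement divided by that of the vehicle-treated control group.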

[1] = dose: 100.0 mg/kg/injection, schedule: Q04DX003 (ip), vehicle: saline
[2] = dose: 50.0 mg/kg/injection, schedule: Q01DX005 (ip), vehicle: saline with Tween-80
[3] = dose: 100.0 mg/kg/injection, schedule: Q01DX005 (ip), vehicle: saline with Tween-80
[4] = dose: 200.0 mg/kg/injection, schedule: Q01DX005 (ip), vehicle: saline with Tween-80
[5] = dose: 60.0 mg/kg/injection, schedule: Q01DX005 (ip), vehicle: saline with Tween-80
[6] = dose: 120.0 mg/kg/injection, schedule: Q01DX005 (ip), vehicle: saline with Tween-80
[7] = dose: 240.0 mg/kg/injection, schedule: Q01DX005 (ip), vehicle: saline with Tween-80
[8] = dose: 50.0 mg/kg/injection, schedule: Q01DX005 (ip), vehicle: saline
[9] = dose: 100.0 mg/kg/injection, schedule: Q01DX005 (ip), vehicle: saline
[10] = dose: 200.0 mg/kg/injection, schedule: Q01DX005 (ip), vehicle: saline
[11] = dose: 12.5 mg/kg/injection, schedule: Q01DX009 (ip), vehicle: saline
[12] = dose: 25.0 mg/kg/injection, schedule: Q01DX009 (ip), vehicle: saline
[13] = dose: 100.0 mg/kg/injection, schedule: Q01DX009 (ip), vehicle: saline
[14] = dose: 200.0 mg/kg/injection, schedule: Q01DX009 (ip), vehicle: saline
[15] = dose: 50.0 mg/kg/injection, schedule: Q01DX005 (ip), vehicle: Klucel (hydroxypropylcellulose) (HPC)
[16] = dose: 100.0 mg/kg/injection, schedule: Q01DX005 (ip), vehicle: Klucel (hydroxypropylcellulose) (HPC)
[17] = dose: 200.0 mg/kg/injection, schedule: Q01DX005 (ip), vehicle: Klucel (hydroxypropylcellulose) (HPC)
[18] = dose: 60.0 mg/kg/injection, schedule: Q01DX005 (ip), vehicle: Klucel (hydroxypropylcellulose) (HPC)
[19] = dose: 120.0 mg/kg/injection, schedule: Q01DX005 (ip), vehicle: Klucel (hydroxypropylcellulose) (HPC)
[20] = dose: 240.0 mg/kg/injection, schedule: Q01DX005 (ip), vehicle: Klucel (hydroxypropylcellulose) (HPC)

Measured: T/C

NC1(c2ccccc2)CON=C(c2ccccc2)C1 (stereo unspecified)
inactive: dose: 6.25 mg/kg/injection, schedule: Q04DX003 (ip), vehicle: saline 109 % of control | dose: 12.5 mg/kg/injection, schedule: Q04DX003 (ip), vehicle: saline 104 % of control | dose: 25.0 mg/kg/injection, schedule: Q04DX003 (ip), vehicle: saline 102 % of control | [1] 100 % of control

CCCC(CCC)(C(=O)Nc1ccc2nc(C)cc(N)c2c1)C(=O)Nc1ccc2nc(C)cc(N)c2c1
inactive: [2] 91 % of control | [3] 96 % of control

O=c1[nH]c(=O)n(C2CC(O)C(CO)C2)cc1F (stereo unspecified)
inactive: dose: 200.0 mg/kg/injection, schedule: Q01DX005 (ip), vehicle: saline + Tween-80 + alcohol 100 % of control | dose: 400.0 mg/kg/injection, schedule: Q01DX005 (ip), vehicle: saline + Tween-80 + alcohol 120 % of control

C#Cc1cccc(N=Cc2cc(Cl)cc(Br)c2O)c1
inactive: [2] 105 % of control | [3] 102 % of control | [4] 107 % of control

N#CNC1=C(C#N)C(c2ccccc2)CC(=O)N1 (stereo unspecified)
inactive: [5] 97 % of control | [6] 101 % of control | [7] 100 % of control

O=C1NC(CCO)C(=O)NC1CCO (stereo unspecified)
inactive: [8] 100 % of control | [9] 100 % of control | [10] 106 % of control

O=C1c2cc3c(cc2C(=O)c2[nH]ncc21)OCO3
inactive: [5] 92 % of control | [6] 100 % of control | [7] 96 % of control

CCCCCC(=O)C(C)(c1nc2nnc(N)n2[nH]c1=O)c1nc2nnc(N)n2[nH]c1=O
inactive: [2] 93 % of control | [3] 93 % of control | [4] 94 % of control

c1ccc2c(NCCCCCCCCCCCCCCCCNc3c4ccccc4nc4ccccc34)c3ccccc3nc2c1
inactive: dose: 0.62 mg/kg/injection, schedule: Q01DX009 (ip), vehicle: other 98 % of control | dose: 1.25 mg/kg/injection, schedule: Q01DX009 (ip), vehicle: other 101 % of control | dose: 2.5 mg/kg/injection, schedule: Q01DX009 (ip), vehicle: other 105 % of control | dose: 5.0 mg/kg/injection, schedule: Q01DX009 (ip), vehicle: other 109 % of control | dose: 10.0 mg/kg/injection, schedule: Q01DX009 (ip), vehicle: other 108 % of control

OCCCOCCCOCCCOCCCO
inactive: dose: 100.0 mg/kg/injection, schedule: Q01DX001 (ip), vehicle: saline 101 % of control | dose: 200.0 mg/kg/injection, schedule: Q01DX001 (ip), vehicle: saline 108 % of control | dose: 400.0 mg/kg/injection, schedule: Q01DX001 (ip), vehicle: saline 101 % of control

CC1OC(=O)C(C2OC2C)=CC1O (stereo unspecified)
inactive: [8] 97 % of control | [9] 105 % of control | [10] 105 % of control

Cc1cc2[nH]c3c(C#N)c(O)c(Cc4ccccc4)c(=O)n3c2cc1C
inactive: [5] 91 % of control | [6] 89 % of control | [7] 90 % of control

[N-]=[N+]=Nc1ccnc2cc(C(F)(F)F)ccc12
inactive: [5] 103 % of control | [6] 100 % of control | [7] 96 % of control

CCCCCCC(=O)/C=C/c1ccc(OC(=O)c2ccc(Cl)cc2)cc1
inactive: dose: 6.25 mg/kg/injection, schedule: Q01DX009 (ip), vehicle: saline 97 % of control | [11] 94 % of control | [12] 94 % of control | [13] 92 % of control | [14] 92 % of control

COC(=O)CCSC(=S)Nc1ccc(Br)cc1
inactive: [15] 100 % of control | [16] 100 % of control | [17] 102 % of control

COCCOC(=O)Cc1ccc(OC)c(OC)c1
inactive: [13] 91 % of control | [14] 100 % of control | dose: 400.0 mg/kg/injection, schedule: Q01DX009 (ip), vehicle: saline 104 % of control

Cc1nc2sc3c(c2c2ncnn12)CCCC3
inactive: [2] 103 % of control | [3] 98 % of control | [4] 104 % of control

COC1=CCC2C(=O)C=CC(=O)C2C1 (stereo unspecified)
inactive: dose: 12.5 mg/kg/injection, schedule: Q01DX005 (ip), vehicle: Klucel (hydroxypropylcellulose) (HPC) 101 % of control | dose: 25.0 mg/kg/injection, schedule: Q01DX005 (ip), vehicle: Klucel (hydroxypropylcellulose) (HPC) 93 % of control | [15] 101 % of control | [16] 96 % of control | [17] 101 % of control

COc1cc2c(cc1O)CC1c3c(cc(OC)c(O)c3C2)CCN1C (stereo unspecified)
inactive: dose: 12.5 mg/kg/injection, schedule: Q01DX001 (ip), vehicle: saline with Tween-80 100 % of control | dose: 25.0 mg/kg/injection, schedule: Q01DX001 (ip), vehicle: saline with Tween-80 96 % of control | dose: 50.0 mg/kg/injection, schedule: Q01DX001 (ip), vehicle: saline with Tween-80 97 % of control | dose: 100.0 mg/kg/injection, schedule: Q01DX001 (ip), vehicle: saline with Tween-80 95 % of control

N#C/C(=N\Nc1ccccc1Cl)C(=O)C1CC1
inactive: [18] 100 % of control | [19] 100 % of control | [20] 89 % of control

O=C(O)CCCNSc1ccccc1[N+](=O)[O-]
inactive: [11] 100 % of control and 117 % of control | [12] 108 % of control and 94 % of control | dose: 50.0 mg/kg/injection, schedule: Q01DX009 (ip), vehicle: saline 99 % of control and 110 % of control | [13] 100 % of control and 108 % of control

CC1=C(O)CC(/C(C)=C/Cl)OC1=O (stereo unspecified)
inactive: dose: 100.0 mg/kg/injection, schedule: Q04DX002 (ip), vehicle: Klucel (hydroxypropylcellulose) (HPC) 103 % of control | dose: 200.0 mg/kg/injection, schedule: Q04DX002 (ip), vehicle: Klucel (hydroxypropylcellulose) (HPC) 107 % of control | dose: 400.0 mg/kg/injection, schedule: Q04DX002 (ip), vehicle: Klucel (hydroxypropylcellulose) (HPC) 102 % of control

CC(C)(C)NC(=O)NS(=O)(=O)c1cccnc1Sc1ccccc1Cl
inactive: [18] 107 % of control | [19] 105 % of control | [20] 99 % of control

CN(C)C(C#C[Si](C)(C)C)C1(O)CCCCC1 (stereo unspecified)
inactive: [1] 103 % of control | dose: 200.0 mg/kg/injection, schedule: Q04DX003 (ip), vehicle: saline 105 % of control | dose: 400.0 mg/kg/injection, schedule: Q04DX003 (ip), vehicle: saline 103 % of control

Cc1cc(N)ccc1N=Nc1ccc(N=Nc2ccc(N=Nc3ccc4cc(S(=O)(=O)O)cc(S(=O)(=O)O)c4c3)c(C)c2)c(C)c1
inactive: [2] 114 % of control and 122 % of control | [3] 115 % of control and 118 % of control and 124 % of control | [4] 115 % of control

CCOC(CNc1c[nH]c(=O)[nH]c1=O)OCC
inactive: dose: 50.0 mg/kg/injection, schedule: Q01DX009 (ip), vehicle: saline with Tween-80 100 % of control | dose: 100.0 mg/kg/injection, schedule: Q01DX009 (ip), vehicle: saline with Tween-80 100 % of control | dose: 200.0 mg/kg/injection, schedule: Q01DX009 (ip), vehicle: saline with Tween-80 103 % of control | dose: 400.0 mg/kg/injection, schedule: Q01DX009 (ip), vehicle: saline with Tween-80 100 % of control
